Measurements published in article PMC12410356 (International Journal for Parasitology: Drugs and Drug …, 2025).

What was measured:
[1] = system: E. multilocularis metacestode vesicles; test: Phosphoglucose isomerase (PGI) release assay (damage-marker release) on metacestode vesicles; assay type: cell-based, Echinococcus multilocularis; details: 10 μM; for PGI d5 (relative PGI release): 5 days; for PGI d12 (relative PGI release): 12 days
[2] = system: E. multilocularis metacestode vesicles; test: Metacestode vesicle viability assay (ATP, CellTiter-Glo); assay type: cell-based, Echinococcus multilocularis
Protocol: Viability was assessed after 12 days using the same metacestode vesicles as for the PGI release assay. Triton X-100 was added to each well to a final concentration of 0.1 %. Subsequently the metacestode vesicles were broken mechanically and 50 μL of the supernatant was mixed with 50 μL of CellTiter-Glo® buffer (Promega, Dübendorf, Switzerland). Measurements were performed on a HIDEX Sense microplate reader.

[3] = overview screen, singlets, relative to 0.1 % Triton X-100, DMSO subtracted
[4] = overview screen, 10 μM, singlets, 12 days, relative to DMSO control
[5] = confirmation screen, triplicates, mean

Structure (SMILES)	PGI d5 (relative PGI release) [1, 3] [%]	PGI d12 (relative PGI release) [1, 3] [%]	Viability d12 (relative viability) [2, 4] [%]	PGI d5 (relative PGI release) [1, 5] [%]	PGI d12 (relative PGI release) [1, 5] [%]	Viability d12 (relative viability) ([2]; confirmation screen, 10 μM, triplicates, mean, 12 days) [%]	Viability d12 (relative viability) ([2]; 10 µM) [%]
CC(Cc1ccccc1)C(=O)Nc1ccc(Cl)cc1C(=O)O (stereo not drawn) [MMV1579781]	-1.72	1.6268	82.6324	–	–	–	–
Cc1cccc(CC(=O)N[C@H]2CCOC2=O)c1 [MMV1579782]	1.649	1.447	167.646	–	–	–	–
CCCCSc1nc(N)c2[nH]c(=O)c(=O)n(Cc3ccccc3)c2n1 [MMV1579783]	3.365	-15.2556	63.4578	–	–	–	–
O=C(Nc1ccccc1C(=O)O)c1cccc(Oc2ccccc2)c1 [MMV1579784]	0.07516	11.2094	41.5815	–	–	–	–
N#CCN1C(=O)COc2cc(F)c(N3C(=O)c4ccccc4C3=O)cc21 [MMV1579785]	-1.9012	-13.7258	95.5206	–	–	–	–
Cl.Cl.NCCCc1ccccc1C(=O)Nc1ncc([N+](=O)O)s1 [MMV1579786]	-0.3411	-16.376	116.729	–	–	–	–
O=C(CP(=O)(O)O)NCCc1cccc(Oc2ccccc2)c1 [MMV1579787]	-1.804	-11.6628	61.3703	–	–	–	–
Cc1c(CN(C)C(=O)/C=C/c2cnc3c(c2)C(C)(C)C(=O)N3)oc2ccccc12 [MMV1579788]	17.9293	63.9713	5.845	-0.0109	-0.0852	76.12	–
Cl.N=C(N)c1ccc(COc2ccc(Cl)cc2)cc1 [MMV1579844]	-0.5727	10.4621	5.845	–	–	–	–
O=C(NCc1cccc2ccccc12)c1cccs1 [MMV1579845]	-2.677	-26.5326	53.7721	–	–	–	–
COc1cc(Cc2cc(N)nc(N)n2)cc(OC)c1OC [MMV1579846]	1.265	19.1796	26.7191	–	–	–	–
Cc1ccn2c(C(=O)NCc3ccccc3)c(C)nc2c1 [MMV1579847]	-1.164	-2.526	87.8278	–	–	–	–
N[C@@H]1CN(c2c(F)cc3c(=O)c(C(=O)O)cn([C@@H]4C[C@@H]4F)c3c2Cl)CC12CC2 [MMV1579850]	-2.37	-5.627	103.25	–	–	–	–
O=C(O)c1ccccc1Sc1ncnc2sc3c(c12)CCC3 [MMV1579878]	-1.729	-24.5374	137.353	–	–	–	–
COc1cc(NCc2ccc3nc(N)nc(N)c3c2C)cc(OC)c1OC [MMV1580173]	-1.642	-23.9013	–	–	–	–	66.8811
C[C@H](Cn1cnc2c(N)ncnc21)OCP(=O)(O)O [MMV1580478]	0.0562	-19.3802	132.93	–	–	–	–
CN(C)CC(=O)Nc1ccc2[nH]c(=O)c3ccccc3c2c1 [MMV1580480]	-0.09241	-0.9318	169.884	–	–	–	–
CN1CCN(Cc2ccc(-c3cnc4[nH]cc(-c5ccc6[nH]ccc6c5)c4c3)cc2)CC1 [MMV1580482]	0.2177	0.07079	108.591	–	–	–	–
CN(C)CCCOc1ccc(-c2ccc3ncc4c(c3c2)n(C2CCOCC2)c(=O)n4C)cn1 [MMV1580483]	-0.0428	2.3899	–	–	–	–	49.6824

Structure (SMILES)	PGI d5 (relative PGI release) [1, 3] [%]	PGI d12 (relative PGI release) [1, 3] [%]	Viability d12 (relative viability) [2, 4] [%]	PGI d5 (relative PGI release) [1, 5] [%]	PGI d12 (relative PGI release) [1, 5] [%]	Viability d12 (relative viability) ([2]; confirmation screen, 10 μM, triplicates, mean, 12 days) [%]	Viability d12 (relative viability) ([2]; 10 µM) [%]
COc1ccccc1NC(=O)c1ccccc1Sc1ccc([N+](=O)[O-])cc1 [MMV1580484]	-0.1612	8.961	125.738	–	–	–	–
COc1ccc(OCc2ccc(COc3c(Cl)cccc3Cl)cc2)c(Cl)c1 [MMV1580485]	-0.2661	-0.7114	122.098	–	–	–	–
Cc1nc(N(C)C(=O)Cc2ccc(-c3ccccn3)cc2)sc1S(N)(=O)=O [MMV1580486]	-0.111	0.7043	136.799	–	–	–	–
C/C(=N\NC(=O)C1CC1c1ccccc1)c1ccc(NC(=O)c2ccco2)cc1 (stereo not drawn) [MMV1580487]	-1.203	-0.8271	105.695	–	–	–	–
CN(C)CCCNC(=O)c1ccc(-c2cc(O)c3ncccc3c2)cc1 [MMV1580488]	-1.606	-1.51	174.002	–	–	–	–
CC[N+]1(C/C2=C/CCCCCC2)CCC(NC(=O)C2c3cc(Cl)ccc3Oc3ccc(Cl)cc32)CC1.[I-] (stereo not drawn) [MMV1580489]	1.482	-2.113	73.6372	–	–	–	–
c1cnc(NCc2ccc(CNc3ncccn3)cc2)nc1 [MMV1580490]	0.6457	0.4288	45.3723	–	–	–	–
CCOC(=O)/C=C/[C@H](C[C@@H]1CCNC1=O)NC(=O)[C@@H](CC(=O)[C@@H](NC(=O)c1cc(C)on1)C(C)C)Cc1ccc(F)cc1 [MMV1580491]	0.4485	-17.2617	181.789	–	–	–	–
CC(C)Oc1ccc(-c2nc(-c3cccc4c3CC[C@@H]4NCCO)no2)cc1C#N [MMV1580492]	-0.3732	-18.7012	55.483	–	–	–	–
O=C(/C=C\n1cnc(-c2cc(C(F)(F)F)cc(C(F)(F)F)c2)n1)NNc1ccccn1 [MMV1580493]	1.061	0.9356	159.076	–	–	–	–
CCC[C@H](NC(=O)[C@@H]1[C@H]2CCC[C@H]2CN1C(=O)[C@@H](NC(=O)[C@@H](NC(=O)c1cnccn1)C1CCCCC1)C(C)(C)C)C(=O)C(=O)NC1CC1 [MMV1580494]	0.1247	-0.8271	83.9614	–	–	–	–
Nc1cnn(C2OC(CO)C(O)C2O)c(=O)n1 (stereo not drawn) [MMV1580495]	0.6182	10.061	84.6299	–	–	–	–
NC(=S)N/N=C/c1ncccc1N [MMV1580496]	-0.2661	1.095	58.7881	–	–	–	–
CC(C)(C)NC(=O)N[C@H](C(=O)N1C[C@H]2[C@@H]([C@H]1C(=O)NC(CC1CCC1)C(=O)C(N)=O)C2(C)C)C(C)(C)C (stereo partly drawn) [MMV1580497]	0.3266	69.2218	40.5469	–	–	–	–
O=C(O)C[C@H]1CC[C@H](c2ccc(-c3ccc(Nc4ccc(C(F)(F)F)nc4)cn3)cc2)CC1 [MMV1580498]	0.9992	1.035	139.746	–	–	–	–
COc1ccc(NS(=O)(=O)c2ccc(Cl)s2)cn1 [MMV1580499]	0.09331	-16.9426	78.1001	–	–	–	–
Cn1c2ccccc2c(=O)c2c(O)cccc21 [MMV1580500]	1.098	-0.5737	90.8954	–	–	–	–
CC1(C)CC(NC(=O)C(=O)Nc2ccc(Cl)cc2)CC(C)(C)N1 [MMV1580501]	0.3852	0.4399	102.317	–	–	–	–
